Key:
[1] = test system: Subjects presenting with congestive heart failure who are refractory to high dose diuretic therapy; test: Example 3: IV KW-3902 in subjects refractory to standard IV diuretic therapy; format: in vivo, human; conditions: 20-40 mg KW-3902 IV over 3-5 hours
Procedure: Changes in urine output are measured hourly. The subjects' creatinine clearance rate is measured every 3 hours. […] A dose of between about 20 mg and about 40 mg, preferably about 30 mg of KW-3902 in injectable form is infused through the IV line over the course of about 3 to about 5 hours, and preferably over the course of 4 hours. The subject receives continued treatment with furosemide. The subject's fluid intake and output, urine volume, serum and urine creatinine levels, electrolytes and cardiac function are monitored.

[2] = test system: hospitalized subject treated with maximum amounts of IV diuretic and still fluid overloaded; test: Example 4: IV KW-3902 with continued furosemide in a hospitalized subject refractory to IV diuretic; format: in vivo, human; conditions: 20-40 mg KW-3902 IV over 3-5 hours
Procedure: A hospitalized subject who has been treated with maximum amounts of IV diuretic and is still symptomatic, fluid overloaded, or whose urine output is less than fluid intake is evaluated for further treatment. A dose of a KW-3902 between about 20 mg and about 40 mg, and preferably about 30 mg injectable form is infused through the IV line over the course of about 3 hours to about 5 hours, and preferably over the course of about 4 hours. […] The subject's fluid intake and output, urine volume, serum and urine creatinine levels, electrolytes and cardiac function are monitored.

[3] = test system: subject with fluid overload and impaired renal function; test: Example 5: IV KW-3902 concurrent with diuretic therapy in fluid overload and impaired renal function; format: in vivo, human; conditions: 20-40 mg KW-3902 IV over 3-5 hours, concurrent with other diuretic therapy
Procedure: A subject with fluid overload, as manifested by peripheral edema, dyspnea, and/or other signs or symptoms presents themself to the physician's office or clinic. The subject has been on a therapy regimen that includes oral diuretics and, in addition, to needing a higher dose of diuretics to manage his/her fluid balance, the subject is now showing impaired renal function. […] The subject is administered a dose of about 20 mg to about 40 mg KW-3902 intravenously over about 3 to about 5 hours, preferably over the course of about 4 hours, concurrent with other diuretic therapy. The subject's fluid intake and output, urine volume, serum and urine creatinine levels, electrolytes and cardiac function are monitored.

[4] = test system: subject with fluid overload; test: Example 7: IV KW-3902 concurrent with diuretic therapy in fluid overload; format: in vivo, human; conditions: 20-40 mg KW-3902 IV over 3-5 hours
Procedure: A subject with fluid overload, as manifested by peripheral edema, dyspnea, and/or other signs or symptoms presents to the physician's office or clinic. The subject has been on a therapy regimen that includes oral diuretics and needs a higher dose of diuretics to manage his/her fluid balance. To delay or prevent the onset of renal impairment and/or to delay the need to use higher dosages of standard diuretics, the subject is administered a dose of about 20 mg to about 40 mg, and preferably a dose of about 30 mg, KW-3902 IV, administered over the course of about 3 to about 5 hours, and preferably over the course of about 4 hours. The subject also receives concurrent with their diuretic therapy. The subject's fluid intake and output, urine volume, serum and urine creatinine levels, electrolytes and cardiac function are monitored.

[5] = test system: Subjects presenting with New York Heart Association Class II-IV CHF and estimated creatinine clearance between 20 mL/min and 80 mL/min
Procedure: The subjects are taking an oral loop diuretic. The subjects can also present with a one of the following: history of seizure, stroke within two years, brain tumor, brain surgery within two years, encephalitis within two years, history of penetrating head trauma, closed head injury with loss of consciousness over 30 minutes within two years, history of alcohol withdrawal seizure, advanced Alzheimer's disease, or advanced multiple sclerosis (“at risk” subjects). The subjects' medical history, physical examination, classification of CHF, vital signs, body weight, CHF signs and symptom scores, Holter monitor recording, chest X-ray, CBC chemistries, creatinine clearance, fluid intake, and urine output are determined on pre-treatment days −2 to −1, days 1 to 3 of the Treatment Period, day 4/early Termination and a follow up contact at day 30. […] On day 1, the composition comprising KW-3902 (or placebo) is administered as a monotherapy. 6 hours after administration of KW-3902, IV loop diuretic is given to all treatment groups as needed. […] Final laboratory data are collected on day 4 or early termination. Follow-up phone contact is conducted on day 30.

CCCn1c(=O)c2[nH]c(C34CC5CC(CC3C5)C4)nc2n(CCC)c1=O [KW-3902, 8-(3-noradamantyl)-1,3-dipropylxanthine]
seizures during the course of treatment ([1]; continued furosemide): do not experience seizures
creatinine clearance ([1]; compared to placebo): improvement in creatinine clearance
hourly urine volume over the ensuing 9 hours ([1]; compared to placebo): increased hourly urine volume
diuresis [2]: improved diuresis
seizures [2]: do not experience seizures
creatinine clearance [3]: improved diuresis and creatinine clearance
diuresis [3]: improved diuresis
seizures throughout the course of therapy [3]: do no experience seizures
diuresis [4]: improved diuresis
renal function [4]: renal function is maintained
seizure throughout the course of treatment [4]: do not experience a seizure
kidney function as measured by serum creatinine levels compared to the baseline levels ([5]; 20-40 mg (preferably about 30 mg) KW-3902 IV over about 4 hours, days 1-3, effect greater than placebo): improvement in kidney function
seizures throughout the treatment period ([5]; at risk subjects): do not experience seizures
diuresis, as measured by urine output ([5]; combination of KW-3902 and non adenosine-modifying diuretics such as furosemide): synergistic beneficial effect on diuresis

From patent publication US20080242684A1, “METHODS OF ADMINISTRATION OF ADENOSINE A1 RECEPTOR ANTAGONISTS” (priority 2007, published 2008)
